Laboratory results taken from ChEMBL document CHEMBL5042486, “Discovery and Preclinical Characterization of BIIB091, a Reversible, Selective BTK Inhibitor for the Treatment of Multiple Sclerosis” (J Med Chem, 2022).

Legend:
[1] = test system: Liver; experiment: Drugmetabolism in mouse liver microsomes assessed as metabolite formation; type: ADME, Microsome
[2] = Protein binding in human plasma assessed as unbound fraction at 2 uM by rapid equilibrium dialysis method; type: ADME, cell-free
[3] = Kinetic solubility of the compound at pH 1.5 by shake flask method; type: physicochemical; details: buffer, read-out: Kinetic_solubility
[4] = Clearance in cynomolgus monkey assessed as hepatic blood flow at 1 mg/kg, iv; type: ADME, organism-based, Macaca fascicularis, Liver; details: in vivo
[5] = Volume of distribution at steady state in Spargue-Dawley rat at 5 mg/kg, po; type: ADME, organism-based; details: in vivo
[6] = Volume of distribution at steady state in Beagle dog at 5 mg/kg, po; type: ADME, organism-based, Canis lupus familiaris; details: in vivo
[7] = Hepatotoxicity in rat primary cells assessed as change in urea level for 10 days; type: toxicity, cell-based, Hepatocyte; details: hepatocytes, 240 h, time 10 day
[8] = In vivo toxicity in Sprague-Dawley rat assessed as compound related toxicity at 500 mg/kg after 28 days; type: organism-based; details: 672 h, time 28 day
[9] = test system: Cynomolgus monkey; experiment: In vivo toxicity in cynomolgus monkey assessed as compound related toxicity at 250 mg/kg after 28 days; type: organism-based, Macaca fascicularis; details: 672 h, time 28 day
[10] = test system: Cynomolgus monkey; experiment: In vivo toxicity in cynomolgus monkey assessed as compound related pathology at 250 mg/kg after 28 days; type: organism-based, Macaca fascicularis; details: 672 h, time 28 day
[11] = In vivo inhibition of BTK-dependent B cell activation in C57BL/6 mouse immunized with NP-Ficoll assessed as reduction in anti-NP IgM antibody titer at 10 mg/kg, po BID dosed for 10 days; type: functional; parameters: scale not given: the % may be the effect or the level left; details: time 10 day
[12] = In vivo inhibition of BTK-dependent B cell activation in C57BL/6 mouse immunized with NP-Ficoll assessed as reduction in anti-NP IgM antibody titer at 1 mg/kg, po BID dosed for 10 days; type: functional; parameters: scale not given: the % may be the effect or the level left; details: time 10 day
[13] = In vivo toxicity in Sprague-Dawley rat assessed as NOAEL after 28 days; type: organism-based; details: time 28 day
[14] = Protein binding in monkey plasma assessed as unbound fraction; type: ADME, cell-free, Macaca mulatta; details: rhesus monkey
[15] = target: Cytochrome P450 2D6 (Homo sapiens, UniProt P10635); experiment: Inhibition of CYP2D6 in human liver microsomes at 10 to 50 uM; type: ADME; details: dose 10-50 µM
[16] = test system: Liver; experiment: Drugmetabolism in dog liver microsomes assessed as metabolite formation; type: ADME, Canis lupus familiaris, Microsome
[17] = Drugmetabolism in cynomolgus monkey liver microsomes assessed as metabolite formation; type: ADME, Macaca fascicularis, Microsome
[18] = Drugmetabolism in mouse hepatocytes assessed as metabolite formation; type: ADME, cell-based, Hepatocyte
[19] = Drugmetabolism in rat hepatocytes assessed as metabolite formation; type: ADME, cell-based, Hepatocyte
[20] = Drugmetabolism in dog hepatocytes assessed as metabolite formation; type: ADME, cell-based, Canis lupus familiaris, Hepatocyte

Cytochrome P450 2D6, sequence (P10635 whole entry): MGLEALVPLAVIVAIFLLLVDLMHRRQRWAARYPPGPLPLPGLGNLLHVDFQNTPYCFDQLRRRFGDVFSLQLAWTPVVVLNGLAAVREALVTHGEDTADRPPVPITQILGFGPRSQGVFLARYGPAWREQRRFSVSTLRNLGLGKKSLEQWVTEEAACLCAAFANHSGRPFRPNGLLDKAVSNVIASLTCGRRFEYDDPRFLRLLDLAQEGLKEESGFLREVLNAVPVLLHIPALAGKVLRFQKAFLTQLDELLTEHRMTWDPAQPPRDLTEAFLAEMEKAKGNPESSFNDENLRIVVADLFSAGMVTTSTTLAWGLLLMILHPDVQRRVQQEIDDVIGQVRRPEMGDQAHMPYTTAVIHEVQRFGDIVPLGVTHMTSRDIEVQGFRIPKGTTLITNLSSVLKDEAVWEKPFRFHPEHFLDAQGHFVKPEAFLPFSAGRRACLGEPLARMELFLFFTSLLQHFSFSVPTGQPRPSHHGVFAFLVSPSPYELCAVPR

Drug metabolism [1]: Metabolite_Notdetected
fraction unbound at 2 µM [2]: 0.26
solubility kinetic [3]: > 50 µg/mL
QH [4]: 44%
Vdss [5]: 0.4 L/kg
Vdss [6]: 1.7 L/kg
fraction unbound [14]: 0.19
inhibition (INH) [15]: Not Active
Drug metabolism [16]: Metabolite_Notdetected
Drug metabolism [17]: Metabolite_Notdetected
Drug metabolism [18]: Metabolite_Notdetected
Drug metabolism [19]: Metabolite_Notdetected
Drug metabolism [20]: Metabolite_Notdetected
SMILES: Cn1cc(Nc2nccc(-c3ccc4c(c3)CN(C3COC3)CC[C@H]4NC(=O)c3cn(C(C)(C)C)nn3)n2)cn1 [BIIB-091]
Activity [7]: Non-Toxic
Activity [8]: Non-Toxic
Activity [9]: Non-Toxic
Activity [10]: Non-Toxic
Activity [11]: 77%
Activity [12]: 59%
NOAEL at 672 h [13]: 500 mg/kg
